The values below are quoted from earlier work in patent publication US20250333373A1, “L-2-Amino-4-Halobutyric Acid Derivative-L-Tartrate and Preparation Method Thereof” (Vulpes Agricultural Corp., priority 2022, published 2025).

The conditions of the series: for herbicidal effect: isomers of racemic glufosinate.

With `CP(=O)(O)CC[C@@H](N)C(=O)O` [D], the herbicidal effect result is “almost inactive”.

With `CP(=O)(O)CC[C@H](N)C(=O)O` [L-glufosinate], the herbicidal effect result is “has an herbicidal effect”. Also, where the note is “versus common (racemic) glufosinate”, the “herbicidal activity relative to common glufosinate” value is “twice”.
